{"source": "paper PMC2441954", "about": "“Phase I pharmacokinetic and pharmacodynamic study of the prenyl transferase inhibitor AZD3409 in patients with advanced cancer” (British Journal of Cancer, 2008)", "assay": "Plasma pharmacokinetics (LC-MS/MS, noncompartmental) in phase I patients", "format": "in vivo, human", "conditions": "for Cmax / AUC: human, plasma, oral; for AUC: read-out: AUC0−τ", "procedure": "Pharmacokinetic studies were performed in all patients. Ethylenediaminetetraacetic acid blood samples were collected during the first cycle: on day 1 before the first drug intake and 0.5, 1, 2, 4, 6, 8, 12 and 24 h after administration; on days 3, 8 and 15 before the morning drug intake and 2 h after administration; and on day 22 before the morning drug intake and 0.5, 1, 2, 4, 6, 8, 12 and 24 h after administration. Samples were immediately put on ice and centrifuged at 4°C for 10 min at 1500 g. The resulting plasma was stored at −70°C until analysis. Plasma samples of the last three patients were not measured as the study was stopped before analysis.\nThe total plasma concentrations of AZD3409 ester and AZD3409 acid were determined by LC–MS/MS. The plasma samples were treated with dithiothreitol to reduce any disulphide bonds. The sample pretreatment was based on protein precipitation with acidic acetonitrile. Isotopically labelled analogues were used as internal standards. The method has been validated regarding selectivity, accuracy, precision and stability in human plasma. The lower limit of quantification was 3 ng ml^−1 for both AZD3409 ester and AZD3409 acid, with a 50 μl sample volume.\nThe following PK parameters were determined, either by direct observation or by noncompartmental analysis (WinNonlin, version 5.0.1; Pharsight, Mountain View, CA, USA): the minimal plasma concentration (Cmin), the maximal plasma concentration (Cmax), the area under the curve within one dosing interval (AUC0−τ) and total plasma clearance (Cl/F). Correlations between dose and Cmax levels and between dose and AUC0−τ were analysed on day 1 using the nonparametric Spearman's ρ (Rs) correlation test. Accumulation was tested with an exact Wilcoxon's rank paired signed test. Linear measures mixed effects models were constructed with SAS (SAS Institute Inc., Cary, NC, USA) to determine the effect of the dose on the trough plasma concentrations of both metabolites. The daily dose, time (days), gender and age were considered to be a fixed effect, and the patient variable was considered to be a random effect. Owing to the distribution of the trough plasma concentration log transformation was applied.", "key": {"[1]": {"conditions": "500 mg once daily, day 1, dose 500 (once daily), N=3, mean (SD)"}, "[2]": {"conditions": "500 mg once daily, day 22, dose 500 (once daily), N=2, absolute values"}, "[3]": {"conditions": "750 mg b.i.d., day 1, dose 750 b.i.d., N=8, mean (SD)"}, "[4]": {"conditions": "750 mg b.i.d., day 22, dose 750 b.i.d., N=3, mean (SD)"}, "[5]": {"conditions": "1000 mg once daily, day 1, dose 1000 (once daily), N=3, mean (SD)"}, "[6]": {"conditions": "1000 mg once daily, day 22, dose 1000 (once daily), N=3, mean (SD)"}, "[7]": {"conditions": "1250 mg b.i.d., day 1, dose 1250 b.i.d., N=6, mean (SD)"}, "[8]": {"conditions": "1250 mg b.i.d., day 22, dose 1250 b.i.d., N=4, mean (SD)"}, "[9]": {"conditions": "1500 mg b.i.d., day 1, dose 1500 b.i.d., N=2, absolute values"}, "[10]": {"conditions": "1750 mg b.i.d., day 1, dose 1750 b.i.d., N=4, mean (SD)"}, "[11]": {"conditions": "1750 mg b.i.d., day 22, dose 1750 b.i.d., N=1"}}, "note": "Like-named read-outs stand apart in the source and are kept apart here.", "data": [{"smiles": "CSCC[C@H](NC(=O)c1cc(NC[C@@H]2C[C@H](S)CN2)ccc1CCc1ccc(F)cc1)C(=O)OC(C)C", "note": "[AZD3409 ester]", "values": [{"measurement": "AUCester/AUCacid ratio", "setting": "day 1", "result": 2.5}, {"measurement": "Spearman correlation (Rs) between dose and AUC", "setting": "day 1", "result": 0.52}, {"measurement": "Spearman correlation (Rs) between dose and Cmax", "setting": "day 1", "result": 0.43}, {"measurement": "AUCester/AUCacid ratio", "setting": "day 22", "result": 2.0}, {"measurement": "Cl/F", "setting": "day 22, dose 500 (once daily), N=2, absolute values", "result": "[263–308] l h^−1"}, {"measurement": "Cl/F", "setting": "day 22, dose 750 b.i.d., N=3, mean (SD)", "result": "309 (151) l h^−1"}, {"measurement": "Cl/F", "setting": "day 22, dose 1000 (once daily), N=3, mean (SD)", "result": "319 (172) l h^−1"}, {"measurement": "Cl/F", "setting": "day 22, dose 1250 b.i.d., N=4, mean (SD)", "result": "474 (231) l h^−1"}, {"measurement": "Cl/F", "setting": "day 22, dose 1750 b.i.d., N=1", "result": 1145, "unit": "L/h"}, {"measurement": "Ratio AUC0−τ day 22/day 1", "setting": "dose 500 (once daily), N=2, absolute values", "result": "[1.42–8.31]"}, {"measurement": "Ratio AUC0−τ day 22/day 1", "setting": "dose 750 b.i.d., N=3, mean (SD)", "result": "7.03 (8.46)"}, {"measurement": "Ratio AUC0−τ day 22/day 1", "setting": "dose 1000 (once daily), N=3, mean (SD)", "result": "1.54 (0.86)"}, {"measurement": "Ratio AUC0−τ day 22/day 1", "setting": "dose 1250 b.i.d., N=4, mean (SD)", "result": "1.28 (0.70)"}, {"measurement": "Ratio AUC0−τ day 22/day 1", "setting": "dose 1750 b.i.d., N=1", "result": 0.97}, {"measurement": "Cmax", "setting": "[1]", "result": 82.1, "unit": "ng/mL"}, {"measurement": "AUC", "setting": "[1]", "result": 395, "unit": "ng·h/mL"}, {"measurement": "Cmax", "setting": "[2]", "result": "229 to 257", "unit": "ng/mL"}, {"measurement": "AUC", "setting": "[2]", "result": "1230 to 1460", "unit": "ng·h/mL"}, {"measurement": "Cmax", "setting": "[3]", "result": 245, "unit": "ng/mL"}, {"measurement": "AUC", "setting": "[3]", "result": 1070, "unit": "ng·h/mL"}, {"measurement": "Cmax", "setting": "[4]", "result": 298, "unit": "ng/mL"}, {"measurement": "AUC", "setting": "[4]", "result": 1720, "unit": "ng·h/mL"}, {"measurement": "Cmax", "setting": "[5]", "result": 318, "unit": "ng/mL"}, {"measurement": "AUC", "setting": "[5]", "result": 1540, "unit": "ng·h/mL"}, {"measurement": "Cmax", "setting": "[6]", "result": 296, "unit": "ng/mL"}, {"measurement": "AUC", "setting": "[6]", "result": 1930, "unit": "ng·h/mL"}, {"measurement": "Cmax", "setting": "[7]", "result": 338, "unit": "ng/mL"}, {"measurement": "AUC", "setting": "[7]", "result": 1780, "unit": "ng·h/mL"}, {"measurement": "Cmax", "setting": "[8]", "result": 366, "unit": "ng/mL"}, {"measurement": "AUC", "setting": "[8]", "result": 2120, "unit": "ng·h/mL"}, {"measurement": "Cmax", "setting": "[9]", "result": "227 to 315", "unit": "ng/mL"}, {"measurement": "AUC", "setting": "[9]", "result": "1460 to 1630", "unit": "ng·h/mL"}, {"measurement": "Cmax", "setting": "[10]", "result": 362, "unit": "ng/mL"}, {"measurement": "AUC", "setting": "[10]", "result": 1690, "unit": "ng·h/mL"}, {"measurement": "Cmax", "setting": "[11]", "result": 445, "unit": "ng/mL"}, {"measurement": "AUC", "setting": "[11]", "result": 1100, "unit": "ng·h/mL"}]}]}
